According to US20160311788A1, “Antifouling Compounds And Use Thereof” (National University of Singapore, priority 2008, published 2016):

Key:
[1] = tested on: Pseudomonas aeruginosa (strain LMG 12228; ATCC 15692); assay: disc inhibition assay, REF 3; format: cell-based
Experimental: (§1) 13 strains of marine bacteria were isolated from fouling communities located in the coastal waters around Singapore. These were characterized in earlier studies and reported in Teo et al. (U.S. patent application Ser. No. 11/265,833) and Choong et al (in prep). In addition, four reference bacterial strains were added tested: Escherichia coli (Strain K12, ATCC 15222), E. coli (strain DH5a), Pseudomonas aeruginosa (strain LMG 12228; ATCC 15692) and P. putida (strain KT2440; ATCC 47054). All the bacteria were also tested against five antibiotics: ampicillin (AMP), tetracycline (TETR), erythromycin (ERY), chloramphenicol (CHL) and streptomycin (STREP).
(§2) Disks comprising the compounds to be tested were prepared as follows. The antibacterial assay, the pure compounds were made up to a concentration of 2 mgml^−1 in DMSO. 25 μl of the stock was pipetted onto each 6 mm sterile disc (Macherey-Nagel #484000) to obtain 50 μg of compound per disc. Equivalent volume of DMSO was used inoculated for the control.
(§3) For all disk inhibition assays, bacterial cultures were grown in marine broth (Pronadisa #1217.00). Sterile swabs dipped into the cultures were used to inoculate Marine Agar plates with a bacterial lawn by smearing the culture over the surface. After inoculating the plates, discs with antibiotics, pharmaceuticals or control blanks were placed on each plate. Each concentration of antibiotic or pharmaceutical was tested with two replicates. After the disks were placed on the agar surface, plates were incubated overnight in the dark at 35° C. After incubation, plates were examined for zones of inhibition or clearing around control and treated disks. The diameter of any zone of clearing or inhibition was measured using Vernier calipers. There were two replicates per treatment, and the average was taken. There was no zone of inhibition around the control blanks in all the assays.

[2] = tested on: Escherichia coli (Strain K12; ATCC 15222); assay: disc inhibition assay, REF 1; format: cell-based
Experimental: as §1, §2, §3

[3] = tested on: marine bacteria strain S9; assay: disc inhibition assay, strain S9; format: cell-based, Bacillus algicola; details: Guptibacillus algicola, S9, 24 h
In short: (§4)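 Zone-of-inhibition diameters (caliper, n=2 averaged) were recorded after overnight dark incubation at 35° C. Test discs of 6 mm bore 50 μg compound delivered in DMSO, placed on lawns of the marine strain grown in marine broth and spread on Marine Agar; solvent discs served as controls.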

[4] = tested on: marine bacteria strain S17; assay: disc inhibition assay, strain S17; format: cell-based, Gordonia terrae; details: Gordonia terrae, S17, 24 h
In short: as §4

[5] = tested on: marine bacteria strain S29; assay: disc inhibition assay, strain S29; format: cell-based, Bacillus hwajinpoensis; details: Guptibacillus hwajinpoensis, S29, 24 h
In short: as §4

[6] = tested on: marine bacteria strain S16; assay: disc inhibition assay, strain S16; format: cell-based, Pseudoalteromonas piscicida; details: Pseudoalteromonas piscicida, S16, 24 h
In short: as §4

[7] = tested on: marine bacteria strain S10; assay: disc inhibition assay, strain S10; format: cell-based, Halobacillus trueperi; details: Halobacillus trueperi, S10, 24 h
In short: as §4

[8] = tested on: Pseudomonas putida (Strain KT2440; BCRC 10459); assay: disc inhibition assay, REF 4; format: cell-based
Experimental: as §1, §2, §3

[9] = tested on: marine bacteria strain S28; assay: disc inhibition assay, strain S28; format: cell-based, Arthrobacter protophormial; details: Arthrobacter, S28, 24 h
In short: as §4

[10] = tested on: marine bacteria strain S18; assay: disc inhibition assay, strain S18; format: cell-based, Microbacterium esteraromaticum; details: Microbacterium esteraromaticum, S18, 24 h
[11] = tested on: marine bacteria strain S1; assay: disc inhibition assay, strain S1; format: cell-based, Rhodovulum iodosum
In short: as §4

[12] = tested on: Escherichia coli (Strain DH5a); assay: disc inhibition assay, REF 2; format: cell-based
Experimental: as §1, §2, §3

[13] = tested on: marine bacteria strain S4; assay: disc inhibition assay, strain S4; format: cell-based, Bacillus algicola; details: Guptibacillus algicola, S4, 24 h
In short: as §4

[14] = tested on: marine bacteria strain S14; assay: disc inhibition assay, strain S14; format: cell-based, Vibrio probioticus
[15] = tested on: marine bacteria strain S27; assay: disc inhibition assay, strain S27; format: cell-based, Tenacibaculum lutimaris
In short: as §4

[16] = tested on: marine bacteria strain S3; assay: disc inhibition assay, strain S3; format: cell-based, Erythrobacter aquimaris
In short: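 Antibacterial susceptibility was measured by agar disc diffusion. Compounds dissolved in DMSO were applied to 6 mm sterile discs and laid on Marine Agar lawns of a Singapore coastal marine bacterium cultured in marine broth. After overnight dark incubation at 35° C, clearing zone diameters were measured with Vernier calipers, and the two replicates were averaged.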

[17] = tested on: marine bacteria strain S30; assay: disc inhibition assay, strain S30; format: cell-based, Bacillus borophilicus; details: Bacillus, S30, 24 h
In short: as §4

Q: Which zone of inhibition ([1]; REF 3, 5 ug) does the source give for `CC[C@H]1OC(=O)[C@H](C)[C@@H](O[C@H]2C[C@@](C)(OC)[C@@H](O)[C@H](C)O2)[C@H](C)[C@@H](O[C@@H]2O[C@H](C)C[C@H](N(C)C)[C@H]2O)[C@](C)(O)C[C@@H](C)C(=O)[C@H](C)[C@@H](O)[C@]1(C)O` [ERY, Erythromycin, reference compound] here?
A: + (2-5 mm zone of inhibition around each disk was observed.)

Q: What about the zone of inhibition ([1]; REF 3, 15 ug) of the same compound?
A: + (2-5 mm zone of inhibition around each disk was observed.)

Q: What about the zone of inhibition ([2]; REF 1, 5 ug) of the same compound?
A: −

Q: What about the zone of inhibition ([2]; REF 1, 15 ug) of the same compound?
A: + (2-5 mm zone of inhibition around each disk was observed.)

Q: And the zone of inhibition at 5 µg/disc ([3]; strain 9, 5 ug)?
A: > 10 mm

Q: And the zone of inhibition at 15 µg/disc ([3]; strain 9, 15 ug)?
A: > 10 mm

Q: What about the zone of inhibition at 5 µg/disc ([4]; strain 17, 5 ug) of the same compound?
A: > 10 mm

Q: What about the zone of inhibition at 15 µg/disc ([4]; strain 17, 15 ug) of the same compound?
A: > 10 mm

Q: What about the zone of inhibition at 5 µg/disc ([5]; strain 29, 5 ug) of the same compound?
A: > 10 mm

Q: What about the zone of inhibition at 15 µg/disc ([5]; strain 29, 15 ug) of the same compound?
A: > 10 mm

Q: And the zone of inhibition at 5 µg/disc ([6]; strain 16, 5 ug)?
A: 2 to 5 mm

Q: What about the zone of inhibition at 15 µg/disc ([6]; strain 16, 15 ug) of the same compound?
A: 2 to 5 mm

Q: What about the zone of inhibition at 5 µg/disc ([7]; strain 10, 5 ug) of the same compound?
A: 5 to 10 mm

Q: What about the zone of inhibition at 15 µg/disc ([7]; strain 10, 15 ug) of the same compound?
A: > 10 mm

Q: And the zone of inhibition ([8]; REF 4, 5 ug)?
A: + (2-5 mm zone of inhibition around each disk was observed.)

Q: And the zone of inhibition ([8]; REF 4, 15 ug)?
A: + (2-5 mm zone of inhibition around each disk was observed.)

Q: What about the zone of inhibition at 5 µg/disc ([9]; strain 28, 5 ug) of the same compound?
A: > 10 mm

Q: What about the zone of inhibition at 15 µg/disc ([9]; strain 28, 15 ug) of the same compound?
A: > 10 mm

Q: And the zone of inhibition at 5 µg/disc ([10]; strain 18, 5 ug)?
A: 2 to 5 mm

Q: What about the zone of inhibition at 15 µg/disc ([10]; strain 18, 15 ug) of the same compound?
A: 5 to 10 mm

Q: And the zone of inhibition ([11]; strain 1, 5 ug)?
A: −

Q: And the zone of inhibition ([11]; strain 1, 15 ug)?
A: −

Q: What about the zone of inhibition ([12]; REF 2, 5 ug) of the same compound?
A: −

Q: And the zone of inhibition ([12]; REF 2, 15 ug)?
A: + (2-5 mm zone of inhibition around each disk was observed.)

Q: What about the zone of inhibition at 5 µg/disc ([13]; strain 4, 5 ug) of the same compound?
A: > 10 mm

Q: What about the zone of inhibition at 15 µg/disc ([13]; strain 4, 15 ug) of the same compound?
A: > 10 mm

Q: What about the zone of inhibition at 15 µg/disc ([14]; Vibrio, S14, 24 h) of the same compound?
A: 2 to 5 mm

Q: And the zone of inhibition ([14]; strain 14, 5 ug)?
A: −

Q: And the zone of inhibition at 5 µg/disc ([15]; Tenacibaculum lutimaris, S27, 24 h, strain 27, 5 ug)?
A: 5 to 10 mm

Q: What about the zone of inhibition at 15 µg/disc ([15]; Tenacibaculum lutimaris, S27, 24 h, strain 27, 15 ug) of the same compound?
A: 5 to 10 mm

Q: What about the zone of inhibition at 5 µg/disc ([16]; Qipengyuania aquimaris, S3, 24 h, strain 3, 5 ug) of the same compound?
A: 5 to 10 mm

Q: What about the zone of inhibition at 15 µg/disc ([16]; Qipengyuania aquimaris, S3, 24 h, strain 3, 15 ug) of the same compound?
A: 5 to 10 mm

Q: What about the zone of inhibition at 5 µg/disc ([17]; strain 30, 5 ug) of the same compound?
A: 5 to 10 mm

Q: What about the zone of inhibition at 15 µg/disc ([17]; strain 30, 15 ug) of the same compound?
A: 5 to 10 mm

Q: How did the zone of inhibition ([1]; REF 3, 10 ug) turn out when `[H]/N=C(/N)N[C@H]1[C@H](O)[C@@H](O)[C@H](O[C@@H]2O[C@@H](C)[C@](O)(C=O)[C@H]2O[C@@H]2O[C@@H](CO)[C@H](O)[C@@H](O)[C@@H]2NC)[C@@H](N/C(N)=N\[H])[C@@H]1O` [STREP, Streptomycin, reference compound] was run?
A: + (2-5 mm zone of inhibition around each disk was observed.)

Q: What about the zone of inhibition ([1]; REF 3, 25 ug) of the same compound?
A: ++ (5-10 mm zone was observed.)

Q: What about the zone of inhibition ([2]; REF 1, 10 ug) of the same compound?
A: + (2-5 mm zone of inhibition around each disk was observed.)

Q: And the zone of inhibition ([2]; REF 1, 25 ug)?
A: ++ (5-10 mm zone was observed.)

Q: What about the zone of inhibition at 10 µg/disc ([3]; strain 9, 10 ug) of the same compound?
A: 2 to 5 mm

Q: What about the zone of inhibition at 25 µg/disc ([3]; strain 9, 25 ug) of the same compound?
A: 2 to 5 mm

Q: And the zone of inhibition at 10 µg/disc ([4]; strain 17, 10 ug)?
A: 2 to 5 mm

Q: What about the zone of inhibition at 25 µg/disc ([4]; strain 17, 25 ug) of the same compound?
A: 5 to 10 mm

Q: And the zone of inhibition at 10 µg/disc ([5]; strain 29, 10 ug)?
A: 2 to 5 mm

Q: And the zone of inhibition at 25 µg/disc ([5]; strain 29, 25 ug)?
A: 5 to 10 mm

Q: And the zone of inhibition at 10 µg/disc ([6]; strain 16, 10 ug)?
A: 2 to 5 mm

Q: And the zone of inhibition at 25 µg/disc ([6]; strain 16, 25 ug)?
A: 5 to 10 mm

Q: What about the zone of inhibition at 10 µg/disc ([7]; strain 10, 10 ug) of the same compound?
A: 2 to 5 mm

Q: What about the zone of inhibition at 25 µg/disc ([7]; strain 10, 25 ug) of the same compound?
A: 2 to 5 mm

Q: And the zone of inhibition ([8]; REF 4, 10 ug)?
A: + (2-5 mm zone of inhibition around each disk was observed.)

Q: What about the zone of inhibition ([8]; REF 4, 25 ug) of the same compound?
A: ++ (5-10 mm zone was observed.)

Q: And the zone of inhibition at 10 µg/disc ([9]; strain 28, 10 ug)?
A: 2 to 5 mm

Q: What about the zone of inhibition at 25 µg/disc ([9]; strain 28, 25 ug) of the same compound?
A: 5 to 10 mm

Q: What about the zone of inhibition at 10 µg/disc ([10]; strain 18, 10 ug) of the same compound?
A: 2 to 5 mm

Q: What about the zone of inhibition at 25 µg/disc ([10]; strain 18, 25 ug) of the same compound?
A: 5 to 10 mm

Q: And the zone of inhibition at 10 µg/disc ([11]; Rhodovulum iodosum, S1, strain 1, 10 ug)?
A: 5 to 10 mm

Q: What about the zone of inhibition at 25 µg/disc ([11]; Rhodovulum iodosum, S1, strain 1, 25 ug) of the same compound?
A: > 10 mm

Q: What about the zone of inhibition ([12]; REF 2, 10 ug) of the same compound?
A: −

Q: What about the zone of inhibition ([12]; REF 2, 25 ug) of the same compound?
A: −

Q: And the zone of inhibition at 10 µg/disc ([13]; strain 4, 10 ug)?
A: 2 to 5 mm

Q: What about the zone of inhibition at 25 µg/disc ([13]; strain 4, 25 ug) of the same compound?
A: 5 to 10 mm

Q: What about the zone of inhibition at 10 µg/disc ([14]; Vibrio, S14, 24 h) of the same compound?
A: 2 to 5 mm

Q: What about the zone of inhibition at 25 µg/disc ([14]; Vibrio, S14, 24 h) of the same compound?
A: 2 to 5 mm

Q: And the zone of inhibition ([15]; strain 27, 10 ug)?
A: −

Q: And the zone of inhibition ([15]; strain 27, 25 ug)?
A: −

Q: What about the zone of inhibition ([16]; strain 3, 10 ug) of the same compound?
A: −

Q: And the zone of inhibition ([16]; strain 3, 25 ug)?
A: −

Q: What about the zone of inhibition at 10 µg/disc ([17]; strain 30, 10 ug) of the same compound?
A: 2 to 5 mm

Q: And the zone of inhibition at 25 µg/disc ([17]; strain 30, 25 ug)?
A: 5 to 10 mm
